Patent US11554182B2, “Macrocyclic complexes of alpha-emitting radionuclides and their use in targeted radiotherapy of cancer” (CORNELL UNIVERSITY, priority 2017, dated 2023)

Assay: In vivo biodistribution of ^225Ac complexes after intravenous injection
Parameters: species or system C57BL/6 mice
Description: In Vivo Biodistribution of ^225Ac Complexes of Macropa and DOTA. All experiments were approved by the Institutional Animal Care Committee (IACC) of the University of British Columbia and were performed in accordance with the Canadian Council on Animal Care Guidelines. A total of 9 female C57BL/6 mice (6-8 weeks old, 20-25 g) were used for the biodistribution study of each radiometal complex, n=3 for each time point.
Macropa (100 μL of a 1 mg/mL solution in NH4OAc) was diluted with 387 μL of NH4OAc (1 M, pH 7), and an aliquot (203 μL) of ^225Ac(NO3)3 (˜157 kBq) was then added; the pH of this solution was adjusted to 6.5-7 by the addition of 1 M NaOH (210 μL, trace metal grade). After 5 min at ambient temperature, the reaction solution was analyzed by TLC (0.4 M pH 4 sodium citrate as the eluent), which confirmed >95% radiochemical yield. The reaction was allowed to proceed overnight, and the radiochemical yield was again confirmed to be >95% the following morning. At this time, mice were anesthetized by 2% isoflurane, and approximately 100 μL (10-15 kBq) of the [^225Ac(macropa)]^+ complex were injected into the tail vein of each mouse. After injection, mice were allowed to recover and roam freely in their cages, and were euthanized by CO2 inhalation at 15 min, 1 h, or 5 h (n=3 at each time point) post-injection. Blood was collected by cardiac puncture and placed into an appropriate test tube for scintillation counting. Tissues collected included heart, liver, kidneys, lungs, small intestine, large intestine, brain, bladder, spleen, stomach, pancreas, bone, thyroid, tail, urine, and feces. Tissues were weighed and then counted with a calibrated gamma counter (Packard, Cobra II model 5002) using three energy windows: 60-120 keV (window A), 180-260 keV (window B), and 400-480 keV (window C). Counting was performed both immediately after sacrifice and after 7 days; counts were decay corrected from the time of injection and then converted to the percentage of injected dose (% ID) per gram of tissue (% ID/g). No differences were noted between the data; therefore, the biodistributions are reported using the data acquired immediately using window A.
The biodistribution studies of [^225Ac(DOTA)]^− and ^225Ac(NO3)3 were carried out as described above for [^225Ac(macropa)]^+, with the following modifications. [^225Ac(DOTA)]^− was prepared by adding ^225Ac(NO3)3 (338 μL, 1.1 MBq) to a solution of DOTA (100 μg, 20 mg/mL in H2O) in NH4OAc (467 μL, 0.15 M, pH 7). The pH of the solution was adjusted to 7 using NH4OAc (150 μL, 1 M, pH 7) and the solution was heated at 85° C. for 45 min. RCY>99% was confirmed by TLC as described above. [^225Ac(DOTA)]^− was diluted with saline to a final concentration of 0.05 MBq/100 μL, and 100 μL were injected into each mouse. ^225Ac(NO3)3 (˜58 μL, 0.4 MBq) was diluted and injected in the same manner as [^225Ac(DOTA)]^−. One mouse that was to be euthanized at the 5 h time point in the [^225Ac(DOTA)]^− study died shortly after injection. In the same manner, one mouse that was to be euthanized at the 1 h time point in the ^225Ac(NO3)3 study died.
The in vivo stability [^225Ac(macropa)]^+ was examined by comparing its biodistribution to those of ^225Ac(NO3)3 and [^225Ac(DOTA)]^−. C57BL/6 mice were injected via tail vein with 10-50 kBq of each radiometal complex and were sacrificed after 15 min, 1 h, or 5 h. The amount of ^225Ac retained in each organ was quantified by gamma counting and reported as the percent of injected dose per gram of tissue (% ID/g). The results of these studies are compiled in Tables 1-3. Inadequate stability of an ^225Ac complex leading to the loss of radioisotope in vivo is manifested by the accumulation of ^225Ac in the liver, spleen, and bone of mice.^[11,12,32] […] The biodistribution profile of [^225Ac(macropa)]^+ (FIG. 3B) differs markedly from that of ^225Ac(NO3)3. […]

[1] = 15 min after i.v. injection, energy window A (60-120 keV)
[2] = 15 min after i.v. injection, energy window B (180-260 keV)
[3] = 15 min after i.v. injection, energy window C (400-480 keV)
[4] = 1 h after i.v. injection, energy window A (60-120 keV)
[5] = 1 h after i.v. injection, energy window B (180-260 keV)
[6] = 1 h after i.v. injection, energy window C (400-480 keV)
[7] = 5 h after i.v. injection, energy window A (60-120 keV)
[8] = 5 h after i.v. injection, energy window B (180-260 keV)

O=C([O-])CN1CCN(CC(=O)[O-])CCN(CC(=O)[O-])CCN(CC(=O)[O-])CC1.[225Ac+3] [[^225Ac(DOTA)]^−]
% ID/g in bladder [1]: 48.2703 % ID/g
% ID/g in blood [1]: 5.2881 % ID/g
% ID/g in bone (femur + joint) [1]: 2.6298 % ID/g
% ID/g in brain [1]: 0.2655 % ID/g
% ID/g in feces [1]: 6.2730 % ID/g
% ID/g in heart [1]: 2.3335 % ID/g
% ID/g in kidneys [1]: 27.6566 % ID/g
% ID/g in large intestines [1]: 2.3348 % ID/g
% ID/g in liver [1]: 2.2520 % ID/g
% ID/g in lungs [1]: 5.7556 % ID/g
% ID/g in pancreas [1]: 1.5090 % ID/g
% ID/g in small intestines [1]: 2.6370 % ID/g
% ID/g in spleen [1]: 2.5905 % ID/g
% ID/g in stomach [1]: 2.7440 % ID/g
% ID/g in tail [1]: 8.8606 % ID/g
% ID/g in thyroids [1]: −5.7725 % ID/g
% ID/g in urine [1]: 1467.9186 % ID/g
% ID/g in bladder [2]: 54.4696 % ID/g
% ID/g in blood [2]: 5.6357 % ID/g
% ID/g in bone (femur + joint) [2]: 3.0357 % ID/g
% ID/g in brain [2]: 0.2735 % ID/g
% ID/g in feces [2]: 1.0222 % ID/g
% ID/g in heart [2]: 2.7276 % ID/g
% ID/g in kidneys [2]: 28.0858 % ID/g
% ID/g in large intestines [2]: 2.5365 % ID/g
% ID/g in liver [2]: 2.1817 % ID/g
% ID/g in lungs [2]: 6.0147 % ID/g
% ID/g in pancreas [2]: 1.4929 % ID/g
% ID/g in small intestines [2]: 2.5009 % ID/g
% ID/g in spleen [2]: 2.9076 % ID/g
% ID/g in stomach [2]: 2.7311 % ID/g
% ID/g in tail [2]: 9.4746 % ID/g
% ID/g in thyroids [2]: 1.6601 % ID/g
% ID/g in urine [2]: 1635.4394 % ID/g
% ID/g in bladder [3]: 76.0987 % ID/g
% ID/g in blood [3]: 7.2941 % ID/g
% ID/g in bone (femur + joint) [3]: 4.4224 % ID/g
% ID/g in brain [3]: 0.1588 % ID/g
% ID/g in feces [3]: 1.5693 % ID/g
% ID/g in heart [3]: 2.5579 % ID/g
% ID/g in kidneys [3]: 40.4489 % ID/g
% ID/g in large intestines [3]: 3.8419 % ID/g
% ID/g in liver [3]: 2.9046 % ID/g
% ID/g in lungs [3]: 7.3872 % ID/g
% ID/g in pancreas [3]: 1.0290 % ID/g
% ID/g in small intestines [3]: 3.8916 % ID/g
% ID/g in spleen [3]: 1.5598 % ID/g
% ID/g in stomach [3]: 3.2425 % ID/g
% ID/g in tail [3]: 13.4731 % ID/g
% ID/g in thyroids [3]: −109.5394 % ID/g
% ID/g in urine [3]: 2691.0615 % ID/g
% ID/g in bladder [4]: 4.7351 % ID/g
% ID/g in blood [4]: 0.1144 % ID/g
% ID/g in bone (femur + joint) [4]: 0.4487 % ID/g
% ID/g in brain [4]: 0.0224 % ID/g
% ID/g in feces [4]: 0.2035 % ID/g
% ID/g in heart [4]: 0.1012 % ID/g
% ID/g in kidneys [4]: 1.4020 % ID/g
% ID/g in large intestines [4]: 0.1229 % ID/g
% ID/g in liver [4]: 0.2715 % ID/g
% ID/g in lungs [4]: 0.1555 % ID/g
% ID/g in pancreas [4]: 0.0743 % ID/g
% ID/g in small intestines [4]: 1.7207 % ID/g
% ID/g in spleen [4]: 0.0938 % ID/g
% ID/g in stomach [4]: 0.1367 % ID/g
% ID/g in tail [4]: 0.8091 % ID/g
% ID/g in thyroids [4]: 2.3564 % ID/g
% ID/g in urine [4]: 158.6102 % ID/g
% ID/g in bladder [5]: 4.7141 % ID/g
% ID/g in blood [5]: 0.1127 % ID/g
% ID/g in bone (femur + joint) [5]: 0.4126 % ID/g
% ID/g in brain [5]: 0.0248 % ID/g
% ID/g in feces [5]: 0.2349 % ID/g
% ID/g in heart [5]: 0.1378 % ID/g
% ID/g in kidneys [5]: 1.2560 % ID/g
% ID/g in large intestines [5]: 0.0813 % ID/g
% ID/g in liver [5]: 0.2672 % ID/g
% ID/g in lungs [5]: 0.1946 % ID/g
% ID/g in pancreas [5]: 0.0746 % ID/g
% ID/g in small intestines [5]: 1.8809 % ID/g
% ID/g in spleen [5]: 0.0825 % ID/g
% ID/g in stomach [5]: 0.1379 % ID/g
% ID/g in tail [5]: 0.8973 % ID/g
% ID/g in thyroids [5]: 2.6514 % ID/g
% ID/g in urine [5]: 159.1628 % ID/g
% ID/g in bladder [6]: 6.9149 % ID/g
% ID/g in blood [6]: 0.1102 % ID/g
% ID/g in bone (femur + joint) [6]: 0.5654 % ID/g
% ID/g in brain [6]: 0.0380 % ID/g
% ID/g in feces [6]: 0.4091 % ID/g
% ID/g in heart [6]: 0.2857 % ID/g
% ID/g in kidneys [6]: 1.4787 % ID/g
% ID/g in large intestines [6]: 0.1381 % ID/g
% ID/g in liver [6]: 0.2841 % ID/g
% ID/g in lungs [6]: 0.2551 % ID/g
% ID/g in pancreas [6]: 0.1730 % ID/g
% ID/g in small intestines [6]: 2.0201 % ID/g
% ID/g in spleen [6]: 0.2228 % ID/g
% ID/g in stomach [6]: 0.1720 % ID/g
% ID/g in tail [6]: 1.0280 % ID/g
% ID/g in thyroids [6]: 3.5247 % ID/g
% ID/g in urine [6]: 177.6788 % ID/g
% ID/g in bladder [7]: 0.3551 % ID/g
% ID/g in blood [7]: 0.0140 % ID/g
% ID/g in bone (femur + joint) [7]: 0.2063 % ID/g
% ID/g in brain [7]: 0.0213 % ID/g
% ID/g in feces [7]: 5.5318 % ID/g
% ID/g in heart [7]: 0.0664 % ID/g
% ID/g in kidneys [7]: 0.6172 % ID/g
% ID/g in large intestines [7]: 0.2026 % ID/g
% ID/g in liver [7]: 0.1010 % ID/g
% ID/g in lungs [7]: 0.0390 % ID/g
% ID/g in pancreas [7]: 0.0677 % ID/g
% ID/g in small intestines [7]: 0.0967 % ID/g
% ID/g in spleen [7]: 0.1380 % ID/g
% ID/g in stomach [7]: 0.0852 % ID/g
% ID/g in tail [7]: 0.3057 % ID/g
% ID/g in thyroids [7]: 3.6425 % ID/g
% ID/g in urine [7]: 1.1612 % ID/g
% ID/g in bladder [8]: 0.7521 % ID/g
% ID/g in blood [8]: 0.0292 % ID/g
% ID/g in bone (femur + joint) [8]: 0.1478 % ID/g
% ID/g in brain [8]: 0.0513 % ID/g
% ID/g in feces [8]: 3.3534 % ID/g
% ID/g in heart [8]: 0.0879 % ID/g
% ID/g in kidneys [8]: 0.6718 % ID/g
% ID/g in large intestines [8]: 0.2527 % ID/g
% ID/g in liver [8]: 0.2712 % ID/g
% ID/g in lungs [8]: 0.1289 % ID/g
% ID/g in pancreas [8]: 0.1266 % ID/g
% ID/g in small intestines [8]: 0.2065 % ID/g
% ID/g in spleen [8]: 0.0834 % ID/g
% ID/g in stomach [8]: 0.1789 % ID/g
% ID/g in tail [8]: 0.1634 % ID/g
% ID/g in thyroids [8]: 16.2357 % ID/g
% ID/g in urine [8]: 3.6967 % ID/g
